Source: patent US8889667B2 (Agios Pharmaceuticals, Inc, priority 2010, dated 2014)

molecular target: PKM2 (Homo sapiens, UniProt P14618); assay: PKM2 Assay (activation, LDH-coupled, absorbance at 340 nm); assay type: biochemical; conditions: Table 5
Summary of the method: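 Human PKM2 (50 ng/well) was preincubated with compound and coupling mix for 30 min at 4 °C without ADP. Reactions were then started with ADP (0.7 mM) alongside PEP 0.15 mM, NADH 180 μM and LDH, in Tris pH 7.5/KCl/MgCl2/DTT/BSA buffer. A340 was followed at 25 °C and activation reported as AC50.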

Sequence of PKM2 (P14618 whole entry): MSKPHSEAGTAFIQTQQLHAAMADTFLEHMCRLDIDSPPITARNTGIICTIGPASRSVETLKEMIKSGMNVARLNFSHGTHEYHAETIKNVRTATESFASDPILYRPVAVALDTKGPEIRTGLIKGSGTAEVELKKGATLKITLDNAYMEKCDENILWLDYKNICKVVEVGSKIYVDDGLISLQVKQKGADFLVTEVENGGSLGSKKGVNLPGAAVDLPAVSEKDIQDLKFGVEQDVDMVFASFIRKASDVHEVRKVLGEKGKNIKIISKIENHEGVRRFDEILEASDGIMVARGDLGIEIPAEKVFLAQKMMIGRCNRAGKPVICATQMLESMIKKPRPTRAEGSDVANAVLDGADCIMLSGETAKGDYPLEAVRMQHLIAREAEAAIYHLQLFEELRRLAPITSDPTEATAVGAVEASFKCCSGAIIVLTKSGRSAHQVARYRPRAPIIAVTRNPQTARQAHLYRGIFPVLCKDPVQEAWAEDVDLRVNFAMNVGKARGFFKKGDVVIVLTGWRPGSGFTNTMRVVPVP

Structure (SMILES)	AC50
CC(C)(c1ccccc1F)N1CCN(C(=O)c2ccc(NS(=O)(=O)c3cccc4cccnc34)cc2)CC1 [Compound 409, N-(4-(4-(2-(2-fluorophenyl)propan-2-yl)piperazine-1-carbonyl)phenyl)quinoline-8-sulfonamide]	100 to 500 nM
CC(C)(c1cc(F)cc(F)c1)N1CCN(C(=O)c2ccc(NS(=O)(=O)c3cccc4cccnc34)cc2)CC1 [Compound 410]	< 100 nM
O=C(c1ccc(NS(=O)(=O)c2cccc3cccnc23)nc1)N1CCN(CC2CC2)CC1 [Compound 411, N-(5-(4-(cyclopropylmethyl)piperazine-1-carbonyl)pyridin-2-yl)quinoline-8-sulfonamide]	1000 to 20000 nM
O=C(c1ccc(NS(=O)(=O)c2cccc3cccnc23)nc1)N1CCN(Cc2ccc(F)cc2)CC1 [Compound 412, N-(5-(4-(4-fluorobenzyl)piperazine-1-carbonyl)pyridin-2-yl)quinoline-8-sulfonamide]	100 to 500 nM
O=C(c1ccc(NS(=O)(=O)c2cccc3cccnc23)cc1)N1CCN(C(=O)C2CCOCC2)CC1 [Compound 417, N-(4-(4-(tetrahydro-2H-pyran-4-carbonyl)piperazine-1-carbonyl)phenyl)quinoline-8-sulfonamide]	100 to 500 nM
O=C(c1ccc(NS(=O)(=O)c2cccc3cccnc23)cc1)N1CCN(C(=O)C2CCOC2)CC1 (stereo not drawn) [Compound 418, N-(4-(4-(tetrahydrofuran-3-carbonyl)piperazine-1-carbonyl)phenyl)quinoline-8-sulfonamide]	100 to 500 nM
O=C(c1ccc(NS(=O)(=O)c2cccc3cccnc23)cc1)N1CCN(CC2CCC2)CC1 [Compound 419, N-(4-(4-(cyclobutylmethyl)piperazine-1-carbonyl)phenyl)quinoline-8-sulfonamide]	< 100 nM
O=C(c1ccc(NS(=O)(=O)c2cccc3cccnc23)cc1F)N1CCN(CC2CC2)CC1 [Compound 424, N-(4-(4-(cyclopropylmethyl)piperazine-1-carbonyl)-3-fluorophenyl)quinoline-8-sulfonamide]	100 to 500 nM
O=C(c1ccc(NS(=O)(=O)c2cccc3cccnc23)cc1F)N1CCN(CC2CCOC2)CC1 (stereo not drawn) [Compound 425, N-(3-fluoro-4-(4-((tetrahydrofuran-3-yl)methyl)piperazine-1-carbonyl)phenyl)quinoline-8-sulfonamide]	< 100 nM
O=C(c1ccc(NS(=O)(=O)c2cccc3cccnc23)cc1Cl)N1CCN(CC2CC2)CC1 [Compound 427, N-(3-chloro-4-(4-(cyclopropylmethyl)piperazine-1-carbonyl)phenyl)quinoline-8-sulfonamide]	< 100 nM
O=C(c1ccc(NS(=O)(=O)c2cccc3cccnc23)cc1Cl)N1CCN(CC2CCCC2)CC1 [Compound 428, N-(3-chloro-4-(4-(cyclopentylmethyl)piperazine-1-carbonyl)phenyl)quinoline-8-sulfonamide]	100 to 500 nM
O=C(c1ccc(NS(=O)(=O)c2cccc3cccnc23)cc1Cl)N1CCN(CC2CCOC2)CC1 (stereo not drawn) [Compound 429, N-(3-chloro-4-(4-((tetrahydrofuran-3-yl)methyl)piperazine-1-carbonyl)phenyl)quinoline-8-sulfonamide]	100 to 500 nM
O=C(c1ccc(NS(=O)(=O)c2cccc3cccnc23)cc1)N1CCN(C(=O)C2CCCCO2)CC1 (stereo not drawn) [Compound 430, N-(4-(4-(tetrahydro-2H-pyran-2-carbonyl)piperazine-1-carbonyl)phenyl)quinoline-8-sulfonamide]	< 100 nM
O=C(c1ccc(NS(=O)(=O)c2cccc3cccnc23)cc1Cl)N1CCN(Cc2ccc(F)cc2)CC1 [Compound 431, N-(3-chloro-4-(4-(4-fluorobenzyl)piperazine-1-carbonyl)phenyl)quinoline-8-sulfonamide]	< 100 nM
O=C(c1ccc(NS(=O)(=O)c2cccc3cccnc23)cc1Cl)N1CCN(Cc2ccc(Cl)c(F)c2)CC1 [Compound 432, N-(3-chloro-4-(4-(4-chloro-3-fluorobenzyl)piperazine-1-carbonyl)phenyl)quinoline-8-sulfonamide]	100 to 500 nM
O=C(c1ccc(NS(=O)(=O)c2cccc3cccnc23)cc1Cl)N1CCN(Cc2cc(F)c(F)cc2F)CC1 [Compound 433, N-(3-chloro-4-(4-(2,4,5-trifluorobenzyl)piperazine-1-carbonyl)phenyl)quinoline-8-sulfonamide]	< 100 nM
O=C(c1ccc(NS(=O)(=O)c2cccc3cccnc23)cc1F)N1CCN(CC2CCCCO2)CC1 (stereo not drawn) [Compound 435, N-(3-fluoro-4-(4-((tetrahydro-2H-pyran-2-yl)methyl)piperazine-1-carbonyl)phenyl)quinoline-8-sulfonamide]	100 to 500 nM

More lines, now with the values ahead:

AC50	Structure (SMILES)
100 to 500 nM	O=C(c1ccc(NS(=O)(=O)c2cccc3cccnc23)nc1)N1CCN(Cc2cc(F)cc(F)c2)CC1 [Compound 413, N-(5-(4-(3,5-difluorobenzyl)piperazine-1-carbonyl)pyridin-2-yl)quinoline-8-sulfonamide]
100 to 500 nM	O=C(c1ccc(NS(=O)(=O)c2cccc3cccnc23)cn1)N1CCN(Cc2cc(F)cc(F)c2)CC1 [Compound 414, N-(6-(4-(3,5-difluorobenzyl)piperazine-1-carbonyl)pyridin-3-yl)quinoline-8-sulfonamide]
100 to 500 nM	O=C(c1ccc(NS(=O)(=O)c2cccc3cccnc23)cn1)N1CCN(CC2CC2)CC1 [Compound 415, N-(6-(4-(cyclopropylmethyl)piperazine-1-carbonyl)pyridin-3-yl)quinoline-8-sulfonamide]
100 to 500 nM	O=C(c1ccc(NS(=O)(=O)c2cccc3cccnc23)cn1)N1CCN(Cc2ccc(F)cc2)CC1 [Compound 416, N-(6-(4-(4-fluorobenzyl)piperazine-1-carbonyl)pyridin-3-yl)quinoline-8-sulfonamide]
< 100 nM	O=C(c1ccc(NS(=O)(=O)c2cccc3cccnc23)cc1F)N1CCN(Cc2ccc(F)cc2)CC1 [Compound 420, N-(3-fluoro-4-(4-(4-fluorobenzyl)piperazine-1-carbonyl)phenyl)quinoline-8-sulfonamide]
< 100 nM	O=C(c1ccc(NS(=O)(=O)c2cccc3cccnc23)cc1F)N1CCN(Cc2cc(F)cc(F)c2)CC1 [Compound 421, N-(4-(4-(3,5-difluorobenzyl)piperazine-1-carbonyl)-3-fluorophenyl)quinoline-8-sulfonamide]
100 to 500 nM	O=C(c1ccc(NS(=O)(=O)c2cccc3cccnc23)cc1F)N1CCN(Cc2ccc(Cl)c(F)c2)CC1 [Compound 422, N-(4-(4-(4-chloro-3-fluorobenzyl)piperazine-1-carbonyl)-3-fluorophenyl)quinoline-8-sulfonamide]
< 100 nM	O=C(c1ccc(NS(=O)(=O)c2cccc3cccnc23)cc1F)N1CCN(Cc2cc(F)c(F)c(F)c2)CC1 [Compound 423, N-(3-fluoro-4-(4-(3,4,5-trifluorobenzyl)piperazine-1-carbonyl)phenyl)quinoline-8-sulfonamide]
< 100 nM	O=C(c1ccc(NS(=O)(=O)c2cccc3cccnc23)cc1Cl)N1CCN(Cc2cc(F)cc(F)c2)CC1 [Compound 426, N-(3-chloro-4-(4-(3,5-difluorobenzyl)piperazine-1-carbonyl)phenyl)quinoline-8-sulfonamide]
< 100 nM	O=C(c1ccc(NS(=O)(=O)c2cccc3cccnc23)cc1Cl)N1CCN(Cc2cc(F)c(F)c(F)c2)CC1 [Compound 434, N-(3-chloro-4-(4-(3,4,5-trifluorobenzyl)piperazine-1-carbonyl)phenyl)quinoline-8-sulfonamide]
